For seven compounds, IC50 results are on record in ChEMBL document CHEMBL1143474, “Synthesis and pharmacological evaluation of Tic-hydantoin derivatives as selective sigma1 ligands. Part 1” (Bioorg Med Chem Lett, 2005).

Experiment [1] addresses Sigma 2 receptor. The experiment in a line: Inhibitory concentration against opioid receptor sigma 2 of rat cerebral cortex using [3H]DTG upon incubation for 120 minutes at 22 degree C. In kind it is tissue-based.
Experiment [2] concerns the target Sigma non-opioid intracellular receptor 1 (Cavia porcellus) (UniProt Q60492). The experiment in a line: Inhibitory concentration against opioid receptor sigma 1 of guinea pig cerebral cortex using [3H](+)-pentazocine upon incubation for 150 minutes at 22 degree C.

Each structure is given as a SMILES string.

Sequence of Sigma non-opioid intracellular receptor 1 (Cavia porcellus) (Q60492 whole entry, looked up): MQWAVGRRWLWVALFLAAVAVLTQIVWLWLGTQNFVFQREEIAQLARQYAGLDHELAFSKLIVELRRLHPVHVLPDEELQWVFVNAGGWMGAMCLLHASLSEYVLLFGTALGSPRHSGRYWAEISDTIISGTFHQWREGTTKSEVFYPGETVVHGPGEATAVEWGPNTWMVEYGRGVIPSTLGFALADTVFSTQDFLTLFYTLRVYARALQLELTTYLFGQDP

For the compound `O=C1[C@@H]2Cc3ccccc3CN2C(=S)N1CCN1CCCCC1`, in experiment [1], the concentration for half-maximal inhibition (IC50) (usually the midpoint of a concentration-inhibition curve) worked out at 507 nM.
`O=C1[C@@H]2Cc3ccccc3N2C(=O)N1CCCN1CCCCC1` registered a half-maximal inhibitory concentration (IC50) in experiment [1] greater than 1000 nM.
The same measure, in the same setting: the result for `O=C1[C@H]2Cc3ccccc3CN2C(=O)N1CCN1CCCCC1` reads greater than 1000 nM.
Consider `O=C1[C@@H]2Cc3ccccc3CN2C(=O)N1CCN1CCCCC1`, for which the IC50 in experiment [1] was greater than 1000 nM; in experiment [2], 16 nM.
On the same counts, the results for `O=C1[C@@H]2Cc3ccccc3CN2C(=O)N1CCCN1CCCCC1` are greater than 1000 nM and 21.5 nM.
In experiment [1], `c1ccc2c(c1)C[C@H]1CN(CCN3CCCCC3)CN1C2` had a half-inhibitory concentration (IC50) greater than 1000 nM.
Same read-out and setting: the value for `O=C1N(CCN2CCCCC2)C[C@@H]2Cc3ccccc3CN12` was greater than 1000 nM.
